Consider six compounds from PMC7447632, “Highly functionalized β-lactams and 2-ketopiperazines as TRPM8 antagonists with antiallodynic activity” (Scientific Reports, 2020).

Test [1] has as its system TRPM8. To be noted: cited from earlier work; for IC50: Figure 1, literature values.
Test [2] deals with A549 (lung carcinoma, NSCLC). Put plainly: SRB cytotoxicity assay, A549. In kind it is cell-based. To be noted: 72 h, SRB. The protocol:
(§1) Human tumor cell lines used in this study were purchased from the ATCC. A-549 (CCL-185), lung carcinoma; HT-29 (HTB-38), colorectal adenocarcinoma; MDA-MB-231 (HTB-26), breast adenocarcinoma; PSN1, pancreas adenocarcinoma.
(§2) All cell lines were maintained in DMEM (Dulbecco’s Modified Eagle's Medium) culture medium supplemented with 10% FBS (Fetal Bovine Serum), 100 Units/mL penicillin/streptomycin at 37 °C, 5% CO2 and 95% humidity.
(§3) Triplicate cultures were incubated for 72 h in the presence or absence of test compounds in dose–response curves (10 concentrations, typically ranging from 10 to 0.0026 µg/mL). A colorimetric assay using sulforhodamine B (SRB) was adapted for quantitative measurement of cell growth and cytotoxicity. A more detailed information on this assay is provides in the supplementary information. GI50 is the compound concentration that produces 50% inhibition on cell growth as compared to control cells.
(§4) In vitro bioassays for the detection of antitumor activity
(§5) The aim of this assay is to evaluate the in vitro cytostatic (ability to delay or arrest tumor cell growth) or cytotoxic (ability to kill tumor cells) activity of the samples […]
(§6) Name Nº ATCC Species Tissue Characteristics
(§7) A549 CCL-185 human lung lung carcinoma (NSCLC)
(§8) HT29 HTB-38 human colon colorectal adenocarcinoma
(§9) MDA-MB-231 HTB-26 human breast breast adenocarcinoma
(§10) PSN1 CRM-CRL-3211 human pancreas pancreas adenocarcinoma […]
(§11) A colorimetric assay, using Sulforhodamine B (SRB) reaction has been adapted to provide a quantitative measurement of cell growth and viability (following the technique described by Skehan et al. J. Natl. Cancer Inst. 1990, 82, 1107-1112 […]
(§12) This form of assay employs 96-well cell culture microplates following the standards of the American National Standards Institute and the Society for Laboratory […]
(§13) used in this study were obtained from the American Type Culture Collection (ATCC) and derive from different types of human cancer.
(§14) A549, HT29, MDA-MB-231 and PSN1 cells were maintained in Dulbecco’s
(§15) Modified Eagle Medium (DMEM) supplemented with 10% Fetal Bovine Serum (FBS), 2mM L-glutamine, 100 U/mL penicillin, and 100 U/mL streptomycin at 37 °C, 5% CO2 and 98% humidity. For the experiments, cells were harvested from subconfluent cultures using trypsinization and resuspended in fresh medium before counting and […]
(§16) A549, HT29, MDA-MB-231 and PSN1 cells were seeded in 96 well microtiter plates, at 5000 cells per well in aliquots of 150 µL, and allowed to attach to the plate surface for 18 hours (overnight) in drug free medium. After that, one control (untreated) plate of each cell line was fixed (as described below) and used for time zero reference value. Culture plates were then treated with test compounds (50 µL aliquots of 4X stock […]
(§17) solutions in complete culture medium plus 4% DMSO) using ten 2/5 serial dilutions (concentrations ranging from 10 to 0.003 µg/mL) and triplicate cultures (1% final concentration in DMSO). After 72 hours treatment, the antitumor effect was measured by using the SRB methodology: Briefly, cells were washed twice with PBS, fixed for 15 min in 1% glutaraldehyde solution at room temperature, rinsed twice in PBS, and stained in 0.4% SRB solution for 30 min at room temperature. Cells were then rinsed several times with 1% acetic acid solution and air-dried at room temperature. SRB was then extracted in 10 mM trizma base solution and the absorbance measured in an automated spectrophotometric plate reader at 490 nm.
(§18) Effects on cell growth and survival were estimated by applying the NCI algorithm (Boyd MR and Paull KD. Drug Dev. Res. 1995, 34, 91-109, DOI:10.1002/ddr.430340203). The values obtained in triplicate cultures were fitted by nonlinear regression to a four-parameters logistic curve by nonlinear regression analysis. . Using the absorbance measurements [time zero, (Tz), control growth, (C), and test growth in the presence of drug at the ten concentration levels (Ti)], the […]
(In SRB staining, fixed cells bind dye roughly in proportion to their protein.)

Test [3] has as its system PSN1 (pancreas adenocarcinoma). The test is described as follows: SRB cytotoxicity assay, PSN1. In kind it is cell-based. To be noted: 72 h, SRB. The protocol:
as §1, §2, §3, §4, §5, §6, §7, §8, §9, §10, §11, §12, §13, §14, §15, §16, §17, §18

The target in test [4] is T1, rat TRPM8 channel (Rattus norvegicus, UniProt Q8R455).
T1 construct: expressed in transfected cells; host or cells: HEK293 (stably transfected)
The test is described as follows: Ca2+ microfluorometry, menthol-induced Ca2+ influx in HEK293 cells expressing rat TRPM8. In kind it is cell-based. To be noted: 100 µM menthol, HEK-rTRPM8. The protocol: The ability to inhibit menthol-induced Ca^2+ intracellular influx into the cytosol on HEK293 cells heterologously expressing the rat TRPM8 channel was measured and compared to that of AMTB, a well-known TRPM8 antagonist. Representative recordings of fluorescence obtained in microfluorometry experiments for selected compounds are in Supplementary Fig. S3.
(§19) Human embryonic kidney cell line (HEK) stably transfected with rTRPM8 or h-TRPV1 were used as previously described. Briefly, cells were seeded in 96-well plates at a cell density of 30,000 cells 2 days before treatment. Buffer used was HBBS (in mM): 138 NaCl, 5.33 KCl, 1.26 CaCl2, 0.5 MgCl-6H2O, 0.4 MgSO4-7H2O, 4 NaHCO3 0.44 KH2PO4, 0.3 Na2HPO4, pH 7.4. The day of treatment the medium was replaced with 100 µL of the dye loading solution Fluo-4 NW supplemented with probenecid 2.5 mM. After incubation, plates were transferred to a fluorescence plate reader (Polastar BMG). In the experimental protocol, the baseline fluorescence was recorded ([…]) for 3 cycles. After, vehicle, compound at different concentrations and the corresponding antagonist, 10 µM AMTB for TRPM8 or 10 µM Ruthenium Red for TRPV1 were added to the well. Fluorescence intensity was recorded during 7 cycles more. Finally, the agonist 100 µM menthol for TRPM8 or 1 µM capsaicin for TRPV1 was added and fluorescence intensity was recorded during 10 cycles more.
The degree of inhibition of TRPM8 channel gating was calculated by comparison to calcium increase signal elicited by test substances and menthol at 100 µM. Decrease of menthol signal was expressed as percentage of inhibition (%). All data are expressed as mean ± standard deviation (SD). Each condition was assessed by triplicate (n = 3) in 3 independent experiments (N = 3). Z-factor was calculated in each assay using the following equation: […]. In all the experiments Z-factor was ≥ 0.5. To calculate IC50, normalized responses (%) versus log [µM] were adjusted to a non-linear fit with variable slope, a four-parameter dose–response curve following curve Y = 100/(1 + 10^((Log IC50-X)*HillSlope)) where […].

For test [5], the system named is MDA-MB-231 (breast adenocarcinoma). The test is described as follows: SRB cytotoxicity assay, MDA-MB-231. The settings on record: 72 h, SRB. In kind it is cell-based. Here is the method: as §1, §2, §3, §4, §5, §6, §7, §8, §9, §10, §11, §12, §13, §14, §15, §16, §17, §18
The subject of test [6] is HT29 (colorectal adenocarcinoma). Put plainly: SRB cytotoxicity assay, HT29. In kind it is cell-based. The settings on record: 72 h, SRB. The protocol:
as §1, §2, §3, §4, §5, §6, §7, §8, §9, §10, §11, §12, §13, §14, §15, §16, §17, §18

Test [7] addresses T2, hTRPV1 channels (Homo sapiens, UniProt Q8NER1).
T2 construct: expressed in transfected cells; host or cells: HEK (stably transfected)
Put plainly: Ca2+ microfluorometry in HEK cells expressing hTRPV1 (capsaicin). In kind it is cell-based. To be noted: 1 µM capsaicin. Here is the method: β-Lactam and 2-ketopiperazine derivatives were also assayed for their activity in cell expressing hTRPV1 channels. No significant antagonist activity was measured for any derivatives within both chemotypes (Supplementary Tables S1, S2, and Fig. S3), indicating their selectivity for TRPM8 channels.
as §19
Table S1. Activity at hTRPV1 of β–lactams derived from phenylalaninol conjugates
Compd. Isomer Isomer TRPV1 Blockade (%)
Table S2. Activity at hTRPV1 of 2-ketopiperazines derived from phenylalaninol

Setting [8] is: total growth inhibition, unit inferred.

Bounds are passed on as bounds.

T1 sequence (Q8R455 whole entry): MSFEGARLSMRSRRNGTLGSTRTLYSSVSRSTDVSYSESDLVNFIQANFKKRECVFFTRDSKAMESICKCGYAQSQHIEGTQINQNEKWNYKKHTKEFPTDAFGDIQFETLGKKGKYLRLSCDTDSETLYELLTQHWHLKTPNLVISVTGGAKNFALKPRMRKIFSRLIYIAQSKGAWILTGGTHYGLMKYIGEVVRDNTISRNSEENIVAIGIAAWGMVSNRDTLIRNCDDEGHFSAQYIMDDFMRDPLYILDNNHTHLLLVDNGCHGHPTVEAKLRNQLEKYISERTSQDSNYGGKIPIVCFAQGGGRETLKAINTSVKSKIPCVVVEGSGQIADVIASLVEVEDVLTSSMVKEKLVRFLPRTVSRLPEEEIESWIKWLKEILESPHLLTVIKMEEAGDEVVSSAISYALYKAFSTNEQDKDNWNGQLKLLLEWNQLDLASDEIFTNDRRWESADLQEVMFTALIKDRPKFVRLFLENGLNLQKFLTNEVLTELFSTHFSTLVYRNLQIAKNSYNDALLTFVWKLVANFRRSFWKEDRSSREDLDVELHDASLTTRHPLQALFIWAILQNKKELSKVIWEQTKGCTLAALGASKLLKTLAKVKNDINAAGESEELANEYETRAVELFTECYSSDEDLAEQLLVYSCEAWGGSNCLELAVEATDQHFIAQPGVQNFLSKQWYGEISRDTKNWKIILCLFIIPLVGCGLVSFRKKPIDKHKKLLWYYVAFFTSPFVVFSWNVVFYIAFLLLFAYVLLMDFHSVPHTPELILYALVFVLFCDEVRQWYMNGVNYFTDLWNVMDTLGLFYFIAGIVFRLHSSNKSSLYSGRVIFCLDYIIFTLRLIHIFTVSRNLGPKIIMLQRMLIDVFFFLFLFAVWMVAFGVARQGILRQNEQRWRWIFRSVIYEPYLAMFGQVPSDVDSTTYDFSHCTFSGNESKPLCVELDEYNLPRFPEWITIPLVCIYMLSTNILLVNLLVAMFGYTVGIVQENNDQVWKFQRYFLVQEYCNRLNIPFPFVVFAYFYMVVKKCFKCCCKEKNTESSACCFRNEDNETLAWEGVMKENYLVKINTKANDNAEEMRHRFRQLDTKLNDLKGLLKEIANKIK
T2 sequence (Q8NER1 whole entry): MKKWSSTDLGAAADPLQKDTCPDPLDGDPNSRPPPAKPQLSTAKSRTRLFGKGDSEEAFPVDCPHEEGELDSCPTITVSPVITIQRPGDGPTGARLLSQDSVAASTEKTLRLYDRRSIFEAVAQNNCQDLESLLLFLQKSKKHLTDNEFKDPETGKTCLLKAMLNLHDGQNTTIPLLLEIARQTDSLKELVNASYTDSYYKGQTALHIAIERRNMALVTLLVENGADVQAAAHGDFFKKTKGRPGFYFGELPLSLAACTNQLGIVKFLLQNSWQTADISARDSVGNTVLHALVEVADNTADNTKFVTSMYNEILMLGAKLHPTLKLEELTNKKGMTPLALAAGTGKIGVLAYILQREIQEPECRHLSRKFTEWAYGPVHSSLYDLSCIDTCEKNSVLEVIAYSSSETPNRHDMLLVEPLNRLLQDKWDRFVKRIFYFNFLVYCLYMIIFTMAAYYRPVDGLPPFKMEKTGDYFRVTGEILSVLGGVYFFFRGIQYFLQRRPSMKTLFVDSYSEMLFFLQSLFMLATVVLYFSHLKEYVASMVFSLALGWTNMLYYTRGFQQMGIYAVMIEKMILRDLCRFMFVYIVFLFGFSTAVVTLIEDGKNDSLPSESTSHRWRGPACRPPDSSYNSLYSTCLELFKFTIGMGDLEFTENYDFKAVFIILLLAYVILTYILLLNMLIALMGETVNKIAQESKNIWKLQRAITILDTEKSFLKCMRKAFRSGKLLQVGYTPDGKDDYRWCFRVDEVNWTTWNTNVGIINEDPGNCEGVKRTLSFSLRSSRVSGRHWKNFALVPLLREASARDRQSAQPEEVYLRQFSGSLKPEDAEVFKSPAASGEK

Consider `C[C@H](c1cc(F)cc(F)c1)N(C(=O)c1ccccc1)[C@@H](C(N)=O)c1ccccc1` [KPR-2579], for which the IC50 (as a rule, the concentration that inhibits the measured activity by half) in test [1] is 0.008 µM.

Regarding `O=C(O)c1ccc(S(=O)(=O)N(Cc2ccc(OC(F)(F)F)cc2)c2ncc(C(F)(F)F)cc2Cl)cc1` [RQ 00203078], the IC50 in test [1] was 0.0083 µM.

With `CC1CCC(C(C)C)C(O)C1` (stereo not shown) [Menthol], the EC50 (commonly the concentration giving half of the maximal effect) in test [1] (Figure 1, literature value) is 200 to 500 µM.

With `COC(=O)[C@H](Cc1c[nH]c2ccccc12)N(Cc1ccccc1)Cc1ccccc1` [Bn2-Trp-OMe], the IC50 in test [1] is 0.0002 µM.

Turning to `Cc1cccc(COc2ccccc2C(=O)N(CCCN)Cc2cccs2)c1` [AMTB], the IC50 in test [1] was 0.16 µM.

In turn, `O=C(OCc1ccccc1)C(Cc1ccccc1)N1C[C@@H](Cc2ccccc2)N(C(=O)OCc2ccccc2)CC1=O` (stereo partly shown) [Compound 15ab] registered a TGI A549 in test [2] (setting [8]) of over 17.8 µM. For the same compound, the GI50 – broadly, the concentration at which growth is held to half of that of the control – is over 17.8 µM in test [2] (Homo sapiens, A549); 6.4 µM in test [3] (Homo sapiens, PSN1); over 17.8 µM in test [5] (Homo sapiens, MDA-MB-231); over 17.8 µM in test [6] (Homo sapiens, HT-29). Also, the CC50 is over 17.8 µM in test [2] (Homo sapiens, A549, unit inferred, read-out: LC50 A549); over 17.8 µM in test [3] (Homo sapiens, PSN1, unit inferred, read-out: LC50 PSN1); over 17.8 µM in test [5] (Homo sapiens, MDA-MB-231, unit inferred, read-out: LC50 MDA-MB-231); over 17.8 µM in test [6] (Homo sapiens, HT-29, unit inferred, read-out: LC50 HT29). The compound further registered a TGI PSN1 in test [3] (setting [8]) of over 17.8 µM. For the same compound, the “% Blockade 5 µM” value in test [4] (5 µM compound) is reported as 101.4 ± 6.1%. For the same compound, the “% Blockade 50 µM” value in test [4] (50 µM compound) came to 106 ± 5.06%. The compound further returned an IC50 in test [4] (Ca2+ microfluorometry) of 1.8 ± 1.9 µM. In test [5] (setting [8]), this compound returned a TGI MDA-MB-231 of over 17.8 µM. In addition, the TGI HT29 in test [6] (setting [8]) is over 17.8 µM. Further, the “TRPV1 Blockade (%) 5 µM” value in test [7] (5 µM compound) came out at 6.3±2.1%. Further, the “TRPV1 Blockade (%) 50 µM” value in test [7] (50 µM compound) was 7.8±4.1%.
